Experimental data: ChEMBL document CHEMBL1201862, “PubChem BioAssay data set” (2004)
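Test compounds were applied to cells in 96-well plates for 48 hours at 5 doses. Here, GI50 denotes the concentration required for 50% inhibition of growth.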 The source made the active and inactive calls. Cut-off read from the data, not from the text of the source: active = GI50 up to about 1.1 µM and inactive = higher.

Key:
Test in all cases: NCI-60 cell line screen, 48 h
K562 = tested on: K562
UACC-62 = tested on: UACC-62
SK-MEL-2 = tested on: SK-MEL-2
SN12C = tested on: SN12C
MOLT-4 = tested on: MOLT-4
RXF 631 = tested on: RXF 631
LXFL 529 = tested on: LXFL 529
M14 = tested on: M14
RXF 393 = tested on: RXF 393
HOP-62 = tested on: HOP-62
SR = tested on: SR
HOP-92 = tested on: HOP-92
CCRF-CEM = tested on: CCRF-CEM
NCI-H226 = tested on: NCI-H226
KM12 = tested on: KM12
DMS-273 = tested on: DMS-273
M19-MEL = tested on: M19-MEL
SF-268 = tested on: SF-268
CAKI-1 = tested on: CAKI-1
NCI-H23 = tested on: NCI-H23
SF-295 = tested on: SF-295
Malme-3M = tested on: Malme-3M
LOX IMVI = tested on: LOX IMVI
A498 = tested on: A498
SK-OV-3 = tested on: SK-OV-3
SF-539 = tested on: SF-539
SNB-19 = tested on: SNB-19
UO-31 = tested on: UO-31
SK-MEL-28 = tested on: SK-MEL-28
TK-10 = tested on: TK-10
DMS-114 = tested on: DMS-114
DLD-1 = tested on: DLD-1
A549 = tested on: A549
NCI-H460 = tested on: NCI-H460
IGROV-1 = tested on: IGROV-1
NCI-H522 = tested on: NCI-H522
EKVX = tested on: EKVX
XF498 = tested on: XF498
KM-20L2 = tested on: KM-20L2
ACHN = tested on: ACHN
SK-MEL-5 = tested on: SK-MEL-5
786-0 = tested on: 786-0
SNB-78 = tested on: SNB-78
HOP-18 = tested on: HOP-18
U-251 = tested on: U-251
OVCAR-8 = tested on: OVCAR-8
HL-60 = tested on: HL-60
HCT-116 = tested on: HCT-116
OVCAR-5 = tested on: OVCAR-5
HCC 2998 = tested on: HCC 2998
RPMI-8226 = tested on: RPMI-8226
SNB-75 = tested on: SNB-75
UACC-257 = tested on: UACC-257
OVCAR-4 = tested on: OVCAR-4
HT-29 = tested on: HT-29
SW-620 = tested on: SW-620
OVCAR-3 = tested on: OVCAR-3
COLO 205 = tested on: COLO 205

Measured: GI50

N#CC1(C#N)C(c2ccccc2)C=CC12OCCCO2 (stereo not drawn)
inactive: K562 30.6 µM | UACC-62 33.3 µM | SK-MEL-2 72.4 µM | SN12C 32.6 µM | MOLT-4 26.7 µM | RXF 631 81.3 µM | LXFL 529 28.5 µM | M14 29.7 µM | RXF 393 17 µM | HOP-62 > 100 µM | SR 27 µM | HOP-92 30.5 µM | CCRF-CEM 26.9 µM | NCI-H226 78.7 µM | KM12 38.1 µM | DMS-273 32.3 µM | M19-MEL 40.3 µM | SF-268 28.4 µM | CAKI-1 24.5 µM | NCI-H23 31.2 µM | SF-295 76 µM | Malme-3M 42.2 µM | LOX IMVI 40.4 µM | A498 48.6 µM | SK-OV-3 > 100 µM | SF-539 21.6 µM | SNB-19 > 100 µM | UO-31 97.3 µM | SK-MEL-28 27 µM | TK-10 48.9 µM | DMS-114 24.3 µM | DLD-1 26 µM | A549 88.9 µM | NCI-H460 42 µM | IGROV-1 60.5 µM | NCI-H522 16.3 µM | EKVX 59.3 µM | XF498 49.4 µM | KM-20L2 68.5 µM | ACHN 42.7 µM | SK-MEL-5 53.8 µM | 786-0 31.9 µM | SNB-78 31.6 µM | HOP-18 > 100 µM | U-251 45.2 µM | OVCAR-8 17.7 µM | HL-60 23.4 µM | HCT-116 24.9 µM | OVCAR-5 51.5 µM | HCC 2998 84.9 µM | RPMI-8226 27.7 µM | SNB-75 42.9 µM | UACC-257 27.4 µM | OVCAR-4 59.4 µM | HT-29 47.5 µM | SW-620 31.1 µM | OVCAR-3 33 µM | COLO 205 26.2 µM
